Here are results for three compounds from ChEMBL document CHEMBL1128049, “5-cyano-1-[3-(N-methylpyrrolidin-2R-ylmethyl)indol-5-yl] benzimidazole (CP-161,242): A potent, centrally active 5-HT1D receptor agonist and benzodiazepine partial agonist” (Bioorg Med Chem Lett, 1995).

Experiment [1] deals with GABA-A receptor; anion channel. Nature of the experiment: In vitro displacement of [3H]flunitrazepam from GABA-A central benzodiazepine receptor of guinea pig cerebellum. The format is tissue-based, Cavia porcellus.
Experiment [2] has as its target 5-hydroxytryptamine receptor 1D (Cavia porcellus, UniProt Q60484). Briefly: Compound was tested for the inhibition of forskolin-stimulated adenylate cyclase at 5-hydroxytryptamine 1D receptor in guinea pig substantia nigra.
The target in experiment [3] is T1, 5-hydroxytryptamine receptor 1A (Rattus norvegicus, UniProt P19327).
T1 sequence (P19327 whole entry): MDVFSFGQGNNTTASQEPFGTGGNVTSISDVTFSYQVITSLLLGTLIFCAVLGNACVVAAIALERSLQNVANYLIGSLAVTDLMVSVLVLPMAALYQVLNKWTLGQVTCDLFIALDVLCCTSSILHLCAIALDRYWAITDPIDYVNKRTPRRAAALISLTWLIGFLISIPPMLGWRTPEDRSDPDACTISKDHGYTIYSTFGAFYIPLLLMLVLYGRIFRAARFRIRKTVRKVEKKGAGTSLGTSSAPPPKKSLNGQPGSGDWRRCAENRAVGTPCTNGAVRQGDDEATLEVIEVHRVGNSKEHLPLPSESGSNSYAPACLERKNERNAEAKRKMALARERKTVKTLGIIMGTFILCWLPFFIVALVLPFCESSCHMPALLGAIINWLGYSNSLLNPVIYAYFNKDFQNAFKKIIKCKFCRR
Briefly: Tested in vitro for receptor binding affinity to 5-hydroxytryptamine 1A receptor in rat cortex using [3H]OH-DPAT radioligand.

Chain of 5-hydroxytryptamine receptor 1D (Q60484 whole entry): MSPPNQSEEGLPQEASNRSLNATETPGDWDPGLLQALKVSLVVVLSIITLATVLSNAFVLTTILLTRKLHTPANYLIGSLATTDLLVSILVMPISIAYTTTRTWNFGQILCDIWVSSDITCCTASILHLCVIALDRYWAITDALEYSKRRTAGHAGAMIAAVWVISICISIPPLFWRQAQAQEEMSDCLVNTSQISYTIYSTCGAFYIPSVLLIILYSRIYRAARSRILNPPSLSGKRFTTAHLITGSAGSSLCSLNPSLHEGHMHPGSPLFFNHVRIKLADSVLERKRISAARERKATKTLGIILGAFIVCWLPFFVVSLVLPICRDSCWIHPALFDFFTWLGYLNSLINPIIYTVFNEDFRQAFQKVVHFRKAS

For the compound `CN(C)CCc1c[nH]c2ccc(-n3cnc4cccnc43)cc12`, the values for the IC50 in experiment [1] and in experiment [3] were 89 nM and 210 nM, respectively. In addition, the EC50 in experiment [2] was determined as 14 nM.
Taken in the same sequence, the figures for `CN1CCC[C@@H]1Cc1c[nH]c2ccc(-n3cnc4cc(C#N)ccc43)cc12` were 3.3 nM, 20 nM and 0.042 nM.
`NCCc1c[nH]c2ccc(O)cc12` [SEROTONIN] displayed an EC50 in experiment [2] of 8.5 nM.
